According to patent US20260227407A1, “SYNTHETIC GLYCOPEPTIDES AND DERIVATIVES FOR THE EARLY-STAGE DETECTION OF CANCER BIOMARKERS IN MUC1-POSITIVE TUMORS” (FUNDACIÓN RIOJA SALUD, priority 2023, published 2026):

Tests used:
5E5 (anti-MUC1) antibody = test: Antigen-antibody binding studies by surface plasmon resonance (SPR); design: species or system mouse; details: for Kd: SPR, 5E5 immobilised on CM5 chip, 20° C. and 7.5 pH
Protocol: Surface plasmon resonance (SPR) experiments were performed with a Biacore X-100 apparatus (Biacore, GE) in HBS-EP buffer solution at 7.5 pH (10 mM Hepes, 150 mM NaCl, 3 mM EDTA, with 2% DMSO and 0.05% Tween X100) at […]. This is the running buffer. The 5E5 antibody (from Abcam) was immobilised on a CM5 sensor chip (Biacore, GE) following the standard amine coupling method.^30 Briefly, the carboxymethyl dextran surface of flow cell 2 was activated by a 7 min injection of a 1:1 ratio of a 0.4 M aqueous solution of 1-ethyl-3-(3-dimethylaminopropyl) carbodiimide (EDC) and 0.1 M sulfo-N-hydroxysuccinimide. As such, the antibody was bound to the surface using various dilutions in 10 mM sodium acetate, 4.0. pH during a 7 min injection. […] The flow cell 1 was used as a reference and treated as the flow cell 2 (amine coupling method) without protein. Before use, 50 mM stock solutions of peptide ligand were diluted to the final concentration in the running buffer. Therefore, a series of different compounds were injected into the sensor chip at a flow rate of 30 μl/min for a period of 1 min followed by a dissociation period of 1 min. No regeneration was required. FIGS. 2A and 2B show the response-concentration curves obtained for the binding of glycopeptide 21 and 24, respectively, towards the 5E5 (anti-MUC1) antibody at 20° C. in SPR experiments.
The sensogram data were obtained in duplicate and processed with the Biae Evaluation X100 software (Biacore, GE). Experimental data from the affinity measurements were fitted to a specific two-site binding model using Prism software.

[1] = target: Glycopeptide 24 (…(GalNCOEt)APPA); test: SPR, ratio of the KD values of glycopeptides 21 and 24 for 5E5
[2] = target: Glycopeptide 21 (…(GalNAc)APPA); test: SPR (Biacore X-100), 5E5 immobilised on CM5 chip, glycopeptide as analyte, steady-state fit
[3] = target: Glycopeptide 24 (…(GalNCOEt)APPA); test: as above

| Kd (5E5 (anti-MUC1) antibody) | affinity relative to the natural glycopeptide (21) (5E5 (anti-MUC1) antibody; anti-MUC1 antibody 5E5, SPR) | fold higher affinity than the natural peptide (21) [1] | Kd [2] | Kd [3] | Substance |
| --- | --- | --- | --- | --- | --- |
| 540 nM | – | – | – | – | GGGGPAPGST(GalNAc)APPA [Glycopeptide 21, reference compound] |
| 83 nM | 6.5 times | – | – | – | GGGGPAPGST(GalNCOEt)APPA [Glycopeptide 24] |
| – | – | 6.5 times | 540 nM | 83 nM | mouse monoclonal anti-MUC1 5E5 antibody |
